Laboratory results taken from ChEMBL document CHEMBL1201862, “PubChem BioAssay data set” (2004).
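Cultured in 96-well plates, cells were exposed to test compound for 48 hours across five concentrations. GI50: concentration for 50% inhibition of growth.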 Active and inactive are the calls of the source. Cut-off read from the data, not from the text of the source: active = GI50 up to about 1.1 µM and inactive = higher.

Columns and labels:
Assay in all cases: inhibition of tumour cell growth, NCI panel, 48 h
A549 = tested on: A549
CAKI-1 = tested on: CAKI-1
HCT-15 = tested on: HCT-15
LOX IMVI = tested on: LOX IMVI
CCRF-CEM = tested on: CCRF-CEM
SK-MEL-28 = tested on: SK-MEL-28
OVCAR-8 = tested on: OVCAR-8
A498 = tested on: A498
MDA-MB-435 = tested on: MDA-MB-435
M14 = tested on: M14
SN12C = tested on: SN12C
SK-MEL-5 = tested on: SK-MEL-5
HOP-92 = tested on: HOP-92
MOLT-4 = tested on: MOLT-4
PC-3 = tested on: PC-3
OVCAR-4 = tested on: OVCAR-4
786-0 = tested on: 786-0
SK-MEL-2 = tested on: SK-MEL-2
K562 = tested on: K562
IGROV-1 = tested on: IGROV-1
OVCAR-3 = tested on: OVCAR-3
UACC-62 = tested on: UACC-62
SR = tested on: SR
HL-60 = tested on: HL-60
SF-295 = tested on: SF-295
SW-620 = tested on: SW-620
SK-OV-3 = tested on: SK-OV-3
Malme-3M = tested on: Malme-3M
SF-268 = tested on: SF-268
HCT-116 = tested on: HCT-116
HT-29 = tested on: HT-29
TK-10 = tested on: TK-10
DU-145 = tested on: DU-145
NCI-H23 = tested on: NCI-H23
NCI-H522 = tested on: NCI-H522
MDA-N = tested on: MDA-N
NCI/ADR-RES = tested on: NCI/ADR-RES
UO-31 = tested on: UO-31
SNB-19 = tested on: SNB-19
MDA-MB-231 = tested on: MDA-MB-231
NCI-H226 = tested on: NCI-H226
OVCAR-5 = tested on: OVCAR-5
KM12 = tested on: KM12
T47D = tested on: T47D
MCF7 = tested on: MCF7
U-251 = tested on: U-251
HOP-62 = tested on: HOP-62
EKVX = tested on: EKVX
BT-549 = tested on: BT-549
SF-539 = tested on: SF-539
COLO 205 = tested on: COLO 205
ACHN = tested on: ACHN
RPMI-8226 = tested on: RPMI-8226
Hs-578T = tested on: Hs-578T
UACC-257 = tested on: UACC-257
SNB-75 = tested on: SNB-75
RXF 393 = tested on: RXF 393

## CC(C)CC(N)C(=O)NC(C(=O)NC(CCCNC(=N)N)C(=O)NC(CS)C(=O)NC1CSCC(C(=O)NC(Cc2ccccc2)C(=O)NC(C(=O)NC(CCCNC(=N)N)C(=O)O)C(C)C)NC(=O)C2CCCN2C(=O)C(CCCCN)NC(=O)C2CCCN2C(=O)C2CCCN2C(=O)C(Cc2ccc(O)cc2)NC(=O)C(CO)NC(=O)C(CCCCN)NC(=O)C(C(C)O)NC(=O)C(Cc2c[nH]c3ccccc23)NC1=O)C(C)C (centres undefined)
A549
  GI50: > 25 µM (inactive)
CAKI-1
  GI50: > 25 µM (inactive)
HCT-15
  GI50: > 25 µM
LOX IMVI
  GI50: > 25 µM (inactive)
CCRF-CEM
  GI50: > 25 µM (inactive)
SK-MEL-28
  GI50: > 25 µM (inactive)
OVCAR-8
  GI50: > 25 µM (inactive)
A498
  GI50: > 25 µM (inactive)
MDA-MB-435
  GI50: > 25 µM (inactive)
M14
  GI50: > 25 µM (inactive)
SN12C
  GI50: > 25 µM (inactive)
SK-MEL-5
  GI50: > 25 µM (inactive)
HOP-92
  GI50: > 25 µM (inactive)
MOLT-4
  GI50: > 25 µM (inactive)
PC-3
  GI50: > 25 µM (inactive)
OVCAR-4
  GI50: > 25 µM (inactive)
786-0
  GI50: > 25 µM (inactive)
SK-MEL-2
  GI50: > 25 µM (inactive)
K562
  GI50: > 25 µM (inactive)
IGROV-1
  GI50: > 25 µM (inactive)
OVCAR-3
  GI50: > 25 µM (inactive)
UACC-62
  GI50: > 25 µM (inactive)
SR
  GI50: > 25 µM (inactive)
HL-60
  GI50: > 25 µM (inactive)
SF-295
  GI50: > 25 µM (inactive)
SW-620
  GI50: > 25 µM (inactive)
SK-OV-3
  GI50: > 25 µM (inactive)
Malme-3M
  GI50: > 25 µM (inactive)
SF-268
  GI50: > 25 µM (inactive)
HCT-116
  GI50: > 25 µM (inactive)
HT-29
  GI50: > 25 µM (inactive)
TK-10
  GI50: > 25 µM (inactive)
DU-145
  GI50: > 25 µM (inactive)
NCI-H23
  GI50: > 25 µM (inactive)
NCI-H522
  GI50: > 25 µM (inactive)
MDA-N
  GI50: > 25 µM (inactive)
NCI/ADR-RES
  GI50: > 25 µM (inactive)
UO-31
  GI50: > 25 µM (inactive)
SNB-19
  GI50: > 25 µM (inactive)
MDA-MB-231
  GI50: > 25 µM (inactive)
NCI-H226
  GI50: > 25 µM (inactive)
OVCAR-5
  GI50: > 25 µM (inactive)
KM12
  GI50: > 25 µM (inactive)
T47D
  GI50: > 25 µM (inactive)
MCF7
  GI50: > 25 µM (inactive)
U-251
  GI50: > 25 µM (inactive)
HOP-62
  GI50: > 25 µM (inactive)
EKVX
  GI50: > 25 µM (inactive)
BT-549
  GI50: > 25 µM (inactive)
SF-539
  GI50: > 25 µM (inactive)
COLO 205
  GI50: > 25 µM (inactive)
ACHN
  GI50: > 25 µM (inactive)
RPMI-8226
  GI50: > 25 µM (inactive)
Hs-578T
  GI50: > 25 µM (inactive)
UACC-257
  GI50: > 25 µM (inactive)

## CN(C)/C=N/c1ccc2[nH]c3ccccc3c2c1
A549
  GI50: 39.7 µM (inactive)
CAKI-1
  GI50: 35.2 µM (inactive)
HCT-15
  GI50: 20.6 µM
LOX IMVI
  GI50: 15.7 µM (inactive)
SNB-75
  GI50: 37.7 µM (inactive)
CCRF-CEM
  GI50: 30.9 µM (inactive)
SK-MEL-28
  GI50: 23.3 µM (inactive)
OVCAR-8
  GI50: 37.7 µM (inactive)
A498
  GI50: 20.9 µM (inactive)
MDA-MB-435
  GI50: 18 µM (inactive)
M14
  GI50: 15.1 µM (inactive)
RXF 393
  GI50: 25.8 µM (inactive)
SN12C
  GI50: 52.4 µM (inactive)
SK-MEL-5
  GI50: 16.7 µM (inactive)
HOP-92
  GI50: 15.8 µM (inactive)
MOLT-4
  GI50: 27.3 µM (inactive)
PC-3
  GI50: 36.1 µM (inactive)
OVCAR-4
  GI50: > 100 µM (inactive)
786-0
  GI50: 25.1 µM (inactive)
SK-MEL-2
  GI50: 16.7 µM (inactive)
K562
  GI50: 20.4 µM (inactive)
IGROV-1
  GI50: 43.5 µM (inactive)
OVCAR-3
  GI50: > 100 µM (inactive)
UACC-62
  GI50: 21 µM (inactive)
SR
  GI50: 12.2 µM (inactive)
HL-60
  GI50: 18.1 µM (inactive)
SF-295
  GI50: 31.3 µM (inactive)
SK-OV-3
  GI50: 61.7 µM (inactive)
Malme-3M
  GI50: 22.1 µM (inactive)
SF-268
  GI50: 64.6 µM (inactive)
HCT-116
  GI50: 34.6 µM (inactive)
HT-29
  GI50: 19.8 µM (inactive)
TK-10
  GI50: 28.2 µM (inactive)
DU-145
  GI50: > 100 µM (inactive)
NCI-H23
  GI50: 49.3 µM (inactive)
MDA-N
  GI50: 18.2 µM (inactive)
NCI/ADR-RES
  GI50: 53.7 µM (inactive)
UO-31
  GI50: 29 µM (inactive)
SNB-19
  GI50: > 100 µM (inactive)
MDA-MB-231
  GI50: 19.8 µM (inactive)
NCI-H226
  GI50: 27.4 µM (inactive)
OVCAR-5
  GI50: 28.4 µM (inactive)
T47D
  GI50: 30.6 µM (inactive)
MCF7
  GI50: 32.1 µM (inactive)
U-251
  GI50: 28.8 µM (inactive)
HOP-62
  GI50: 23.2 µM (inactive)
EKVX
  GI50: 65 µM (inactive)
BT-549
  GI50: > 100 µM (inactive)
SF-539
  GI50: 20.8 µM (inactive)
COLO 205
  GI50: 16.6 µM (inactive)
ACHN
  GI50: 48.1 µM (inactive)
RPMI-8226
  GI50: 22.6 µM (inactive)
Hs-578T
  GI50: 38.5 µM (inactive)
UACC-257
  GI50: 15.9 µM (inactive)
